Where “and” joins values, the source holds several entries; their conditions need not be identical. Equal values may be shown once.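 Compound exposure: 48 hours, 5 concentrations, 96-well plates. Abbreviation: GI50, concentration required for 50% inhibition of growth. TGI: total growth inhibition.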
Columns and labels:
Assay in all cases: NCI anticancer screen, dose series, 48 h
[1] = system: K-562 leukemia
[2] = system: EKVX NSCLC
[3] = system: CAKI-1 renal
[4] = system: HS 578T breast
[5] = system: DU-145 prostate
[6] = system: NCI-H226 lung
[7] = system: U251 CNS
[8] = system: MALME-3M melanoma
[9] = system: BT-549 breast
[10] = system: MOLT-4 leukemia

Compound | GI50 [1] [µM] | TGI [1] [µM] | GI50 [2] [µM] | TGI [2] [µM] | GI50 [3] [µM] | TGI [3] | GI50 [4] [µM] | TGI [4] [µM] | GI50 [5] [µM] | TGI [5] [µM] | GI50 [6] [µM] | TGI [6] | GI50 [7] [µM] | TGI [7] [µM] | GI50 [8] [µM] | TGI [8] | GI50 [9] [µM] | TGI [9] | GI50 [10] [µM] | TGI [10] [µM]
O=c1oc2c(cc1-c1ccccc1)C(O)Oc1ccccc1-2 (stereo not drawn) | 4.27 | > 100 | 28.1 | > 100 | 5.09 | > 100 µM | 13.4 | > 100 | 18.9 | > 100 | 28.8 | > 100 µM | 7.92 | > 100 | 9.19 | 58.5 µM | 17.4 | > 100 µM |  | 
O=C1Nc2ccc(CN3CCOC3=O)cc2/C1=C/c1cc(CN2CCOCC2)c[nH]1 | 27.3 | > 100 | 37.5 | > 100 | 26.3 | > 100 µM | > 69.8 | > 100 | > 100 | > 100 | 28.1 | > 100 µM | > 75.6 | > 100 | > 71.5 | > 100 µM | 23.5 | > 79.5 µM | 28.5 | 78.7
CNC12C3C4C1C1C2C3C41C(=O)N[C@H](C(=O)N(C)[C@H](C[C@@H](OC(C)=O)c1nc(C(=O)N[C@@H](Cc2ccccc2)C[C@H](C)C(=O)OC)cs1)C(C)C)C1CC1 (stereo partly drawn) | 0.0667 | > 15 | 1.95 | > 15 | 2.73 | > 15 µM | 0.354 | > 10.3 | 0.317 | > 3.68 | 1.73 | > 14 µM | 0.587 | > 15 | 0.504 | > 15 µM | 0.123 | 0.745 µM | 0.467 | > 13.6
O=C(c1ccccc1)c1ccc(O)c2ncccc12 | 3.4 | > 100 | 3.09 | 56.1 | 1.13 | 6.3 µM | 5.08 | 72 | 5.72 | 27.6 | 9.45 | 41.8 µM | 5.93 | 26.2 | 5.1 | 46.4 µM | 5.96 | 68.5 µM | 3.16 | > 100
CC(=O)N1N=C(c2ccc(Nc3nc(Nc4ccc(F)cc4)nc(Nc4ccc(Cl)cc4)n3)cc2)CC1c1ccc(N(C)C)cc1 (stereo not drawn) | > 32.4 | > 81.9 | 8.06 | > 90.9 | 9.28 | > 54.3 µM | 8.09 | 97.9 | 10.2 | 39 | 4.91 | 28 µM | 4.2 | 35.7 | 4.78 | 23.8 µM | 5.05 | 17.5 µM | 4.2 | 30.9
C=C1[C@@H](O)C[C@H]2C(C)(C)C[C@H](Cl)C[C@]2(C)[C@H]1C[C@H](O)[C@H]1CC(=O)NC1=O | 0.0121 |  | 0.0157 | 0.128 | 0.0418 | 1.59 µM | 0.0192 | 0.274 | 0.0166 | 0.165 | 0.0218 | 0.19 µM | < 0.01 | 0.108 | < 0.01 | 0.0632 µM | 0.0265 | 0.155 µM | < 0.01 | 
Clc1ccc(-c2nc(C(Cl)Cl)nc3cc(-c4ccccc4)nn23)cc1 | 1.81 | > 50 |  |  |  |  | 1.38 | > 50 | 0.516 | 2.02 | > 50 | > 50 µM | 1.12 | > 50 | 2 | > 50 µM | > 50 | > 50 µM | 1.74 | > 50
CNC(C)[C@H]1CCC2C3CCC4C[C@@H](N(C)C(=O)c5ccccc5)CC[C@]4(C)C3CC[C@@]21C (stereo partly drawn) | 0.351 | 2.46 | 0.613 | 6.3 | 1.54 | 5.13 µM | 1.34 | 3.94 | 3.46 | 16.6 | 2.01 | 12.9 µM | 1.25 | 5.4 | 1.6 | 3.99 µM | 2.26 | 8.35 µM | 1.02 | 3.46
Nc1cc(N)cc(Cc2ccccc2)c1 |  | > 100 |  | > 100 |  | > 100 µM |  | > 100 |  | > 100 |  | > 100 µM |  | > 100 |  | > 100 µM |  | > 100 µM |  | > 100
Clc1ccc(N/N=C(\c2ccccc2)c2ccccn2)nc1 | 0.0406 | > 100 | 0.0726 |  | 0.172 | 2.3 µM and 16.7 µM | 0.781 |  | 0.243 | > 100 | 0.197 | 5.16 µM and 0.736 µM | 0.344 | > 68 | 0.0904 | 72.2 µM and 25.7 µM | 0.474 | 25 µM and 29.5 µM | 0.0367 | 
Cc1ccc(NC(=O)N2CCCCC2)cc1[N+](=O)[O-] | > 100 | > 100 | > 100 | > 100 | > 100 | > 100 µM | > 100 | > 100 | > 100 | > 100 | > 100 | > 100 µM | > 100 | > 100 | > 100 | > 100 µM | > 100 | > 100 µM | > 100 | > 100
CCOc1ccc2c(c1)C(=O)c1c-2n(CCCN)c(=O)c2cc([N+](=O)[O-])ccc12 |  |  | 1.19 | 2.57 | 0.0112 | 1.14 µM | 1.93 | 4.04 | < 0.0107 | 0.213 | 1.22 | 3.26 µM | 0.0103 | 1.22 | 0.574 | 2.37 µM | 0.473 | 1.62 µM |  | 
O=C(Nc1nc(-c2ccccc2)cs1)c1cc(O)c(O)c(O)c1 | 2.72 | > 100 |  |  | 1.42 | 16.6 µM | 3.37 | 83.8 | 6.41 | > 100 | 8.08 | 54.8 µM | 2.88 | 21 | 8.86 | 71.1 µM | 3.46 | 31.4 µM | 1.57 | 19.4
